Legend:
Type in all cases: cell-based, human
hPMVEC [1] = assay: In vitro angiogenesis Matrigel assay with hPMVEC; conditions: 4 hours, 100 μM (+)-MK-801 maleate or 50 μM DAP-V (FIG. 1g, FIG. 2f)
Method: Matrigel assays were performed on μ-slide angiogenesis (IBIDI, Martinsried, Germany). 100 μL of phenol-red free matrigel matrix (BD, Franklin lakes, N.J., USA) were put in each wells and slides were incubated during 30 min at 37° C. Then, 50 μL of EGM2-MV medium with our without NMDAR antagonists (100 μM (+)-MK-801 maleate or 50 μM DAP-V, both from ABCAM BIOCHEMICALS, Cambridge, UK) were added on matrigel gels during 1 hour. 3500 hPMVEC were seeded in each well in presence or absence of NMDAR antagonists. After 4 hours, bright-field images of capillary-like structures were captured using Eclipse 80i microscope coupled to Nis Elements BR2.30 software. Images were then automatically analyzed with “Angiogenesis analyzer” plugin for ImageJ software resulting in total tube length and total number of nodes determination.

hPMVEC [2] = assay: hPASMC/hPMVEC co-culture model of angiogenesis; conditions: hPMVECs and hPASMCs co-culture, 15 days, CD31 staining; 10 to 100 μM (FIG. 1h, FIG. 2g)
Method: For the hPASMC/hPMVEC co-culture model of angiogenesis, 20000 PASMC were seeded on glass coverslips in a 12-well plate (CORNING, Tewksbury, Mass., USA) and cultured until confluence in SmGm2 complete medium. […] Medium was changed every 2 to 3 days and after 15 days of co-culture, cells were fixed and CD31 was stained. After staining, 5×5 images of each coverslip were captured using mosaic mode of acquisition with a Zeiss Axio Observer Z1 microscope coupled to Axiovision 4.8 software (both from CARL ZEISS, Oberkochen, Germany). Images were analysed using ImageJ software in order to calculate the CD31 staining area to the total cell area ratio. This ratio was further named as the total tube length. Automatic quantitation was also achieved using AngioQuant software^70 to determine total tube length.

hPMVEC [3] = assay: hPMVEC proliferation (BrdU incorporation) stimulated by VEGF-A or FBS; conditions: for hPMVEC proliferation stimulated by FBS 10%: antagonist 10 μM to 100 μM, no exogenous NMDAR agonists (FIG. 2e); for hPMVEC proliferation stimulated by VEGF-A: VEGF-A 10 ng·ml^−1, antagonist 10 μM to 100 μM, no exogenous NMDAR agonists (FIG. 1f)
Method: FIG. 1: Activation of endothelial cell NMDAR contributes to vascular remodeling in the development of pulmonary hypertension. • (a) The table summarizes quantitation of total membrane GluN1 i.e NMDAR available for activation, in endothelial cells and also specifically in synaptic-like contact (defined as a close contact […] between two endothelial cells without junctions). A concentration index of GluN1 in the synaptic-like contacts was determined calculating the ratio of the percent of membrane GluN1 in these synaptic-like contacts divided by the percent of synaptic contact length. • (b) Quantitative RT-PCR analysis of GRIN1 gene expression from total RNA of CD31+ cells and CD31− cells isolated from the lungs of wild-type mice (n=4) and knocked-out mice (n=4) for the NMDAR in ECs showing efficiency of Grin1 knockout in ECs. Grin1 gene expression is normalized to Actinb gene expression. Values are normalized to those of WT mice. • (c) Right Ventricular Systolic Pressure (RVSP) measurement in wild-type (n=11-12) and knocked-out mice for the NMDAR in ECs (n=17-18) after 3 weeks of normoxia or chronic hypoxia (FiO2: 10%). • (d) Ratio of right ventricular weight to left ventricular plus septum weight (Fulton index) measured in wild-type (n=12) or knocked-out mice for the NMDAR in ECs (n=19-20) after 3 weeks of normoxia or chronic hypoxia (FiO2: 10%). Same experiment as in c). • (e) Morphometric analysis of pulmonary vessels in wild-type or knocked-out mice for the NMDAR in ECs after 3 weeks of normoxia or chronic hypoxia (FiO2: 10%). Same experiment as in c) and d). […] 100 vessels were analyzed for each group (20 vessels per group and per mice). […] On the left automatic quantification of total tube length and total number of nodes using the “Angiogenesis analyzer” plugin from ImageJ software on a total of 7-8 images (1 image/replicate, each image covering nearly all the well area). Values are expressed as percent of control. […] Statistical significance was determined by Mann Whitney test (b), regular two-way ANOVA followed by Bonferonni's test (c-e), one-way ANOVA followed by Bonferonni's multiple comparison test (f, h) or Student's t test (g). *p<0.05, ***p<0.001 compared to WT/control (b-e, g, h) or ^§§§ p<0.001 compared to control, *p<0.05, ***p<0.001 compared to VEGF (f). […]
FIG. 2: Supplementary figures about activation of endothelial cell NMDAR contributes to vascular remodeling in the development of pulmonary hypertension. • (a) Quantitation of total GluN1-associated immunogold particles per 100 μm^2 of endothelial cells in arteries from a control patient, and in an intimal lesion and plexiform lesion from a PAH patient. • (b) Genotyping of Tek-creXGrin1 mice. […]

hPASMCs = assay: hPASMC proliferation induced by PDGF-BB; conditions: PDGF-BB stimulation, no NMDAR agonist added to the medium
Method: For hPASMC culture, 250 000 cells were seeded in T75 flasks (BD Falcon, CORNING, Tewksbury, Mass., USA) and grown in the SmGm2 complete medium containing SmBm basal medium and also basic fibroblast growth factor, epidermal growth factor, insulin and gentamycin/amphotericin 1× (all from LONZA, Basel, Switzerland).
As proliferation of hPASMCs is a crucial determinant of vascular remodeling associated to increased pulmonary vascular resistance and pressure, we analyzed the role of NMDAR activation in hPASMCs proliferation. […] Thus, we explored the potential of PDGF-BB to phosphorylate GluN1 in hPASMCs on Ser896, a site phosphorylated in pulmonary arteries of PAH patients.

Structure (SMILES) | number of nodes (hPMVEC [1]) | total tube length formation (hPMVEC [1]) | formation of the endothelial tube network (hPMVEC [2]) | hPMVEC proliferation stimulated by FBS 10% (hPMVEC [3]) | hPMVEC proliferation stimulated by VEGF-A (hPMVEC [3]) | hPASMCs proliferation induced by PDGF-BB (hPASMCs)
N[C@H](CCCP(=O)(O)O)C(=O)O [DAP-5, 2-amino-5-phosphonopentanoïc acid] | decrease | decrease |  |  |  | 
C[C@@]12N[C@@H](Cc3ccccc31)c1ccccc12 [MK-801, [5R,10S]-[+]-5-methyl-10,11-dihydro-5H-dibenzo[a,d]cyclohepten-5,10-imine] | decrease | decrease | dose-dependently inhibits | dose-dependently inhibit | dose-dependently inhibit | 
CC12CC3CC(C)(C1)CC(N)(C3)C2 [memantine, 3,5-dimethyladamantan-1-amine] |  |  |  | dose-dependently inhibit | dose-dependently inhibit | dose-dependent inhibition

— US10583171B2, “NMDAR antagonists for the treatment of diseases associated with angiogenesis” (INSERM (Institut National de la Sante et de la Recherche …, priority 2015, dated 2020)
